Where two headings read alike, the source gives them in different places.
Columns and labels:
Assay type in all cases: cell-based
[1] = target: HiBiT tagged CK1α (Homo sapiens, UniProt P48729+Q96SW2); assay: CK1α degradation assay (HiBiT assay); details: 20 hours; for DC50 / HiBiT CK1α: Dmax: HT-1080 cells; for DC50: concentration at 50% CK1α degradation; for HiBiT CK1α: Dmax / Dmax: maximum CK1α degradation; for Dmax: HT-1080, HT-1080 cells
Procedure, shortened: (§1)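 HT-1080 cells stably expressing wild-type CRBN, GSPT1A(1-138)/G575N and HiBiT-tagged CK1α or GSPT1, ~10,000/well, treated with compound from 3.162×10^-4 μM to 10 μM (3.16-fold steps). HiBiT luminescence normalized to DMSO as percent of control.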

[2] = target: HiBiT tagged GSPT1 (Homo sapiens, UniProt P15170+Q96SW2); assay: GSPT1 degradation assay (HiBiT assay); details: 20 hours, maximum GSPT1 degradation; for HiBiT GSPT1: Dmax: HT-1080 cells; for Dmax: HT-1080, HT-1080 cells
Procedure, shortened: as §1

[3] = system: MV4-11 cells; assay: MV4-11 cell proliferation assay (CTG cell viability); details: 120 hours, read-out: CTG cell viability assay_MV4-11: IC50
Procedure: MV4-11 Cell Proliferation Assay
The following is an example of an assay that can be used to determine the dose-dependent, anti-proliferative activity of CK1α degradating compounds in an AML cell line such as MV4-11 (ATCC Cat #CRL-9591).
MV4-11 cells were seeded into a 384-well plate (Cat #3764, Corning) pre-spotted with DMSO or test compounds. Increasing concentrations of test compounds (ranging from 1×10^−3 μM to 10 μM at a 3.162-fold increment in a 10-point dose response assay; ranging from 3.162×10^−4 μM to 10 μM at a 3.162-fold increment in a 11-point dose response assay) or DMSO were dispensed into an empty 384-well plate using an a D300e digital dispenser (Tecan) or an Echo Acoustic Liquid Handler (Beckman Coulter). About 2,000 cells in 50 μL of culture media (IMDM plus 10% heat-inactivated FBS) were seeded per well. Assay plates were incubated at 37° C. with 5% CO2 for 120 hours. After that, 20 μL of the CellTiter-Glo Luminescent Cell Viability Assay Reagent (Cat #G7573, Promega) was added to each well and incubated at room temperature for 30 minutes. Luminescence was then measured with an EnVision plate reader (PerkinElmer) or a PHERAstar plate reader (BMG LABTECH). All cell growth inhibition curves were processed using Collaborative Drug Discovery Vault softwares (Burlingame, CA, www.collaborativedrug.com).
Cell viability reads in compound-treated wells were normalized to that of DMSO control and expressed as Percent of Control (PoC, y). A four Parameter Logistic Model was used to determine the compound's EC50 and DC50, using the following equation:
[formula] • A==lowest cell viability read normalized to DMSO control in response to compound treatment, as determined by curve fit • B=cell viability read in DMSO control • C=EC50 • D=Hill Slope • x=compound concentration • EC50=the concentration of compound when y=(B−A)/2 • IC50=the concentration of the compound when y=50% of DMSO control • y=cell viability read normalized to DMSO control Ymin=(A/B)*100% • Ymin represents the lowest cell viability % that can be achieved by the compound treatment in the assay.

Sequence of HiBiT tagged GSPT1 (P15170 whole entry): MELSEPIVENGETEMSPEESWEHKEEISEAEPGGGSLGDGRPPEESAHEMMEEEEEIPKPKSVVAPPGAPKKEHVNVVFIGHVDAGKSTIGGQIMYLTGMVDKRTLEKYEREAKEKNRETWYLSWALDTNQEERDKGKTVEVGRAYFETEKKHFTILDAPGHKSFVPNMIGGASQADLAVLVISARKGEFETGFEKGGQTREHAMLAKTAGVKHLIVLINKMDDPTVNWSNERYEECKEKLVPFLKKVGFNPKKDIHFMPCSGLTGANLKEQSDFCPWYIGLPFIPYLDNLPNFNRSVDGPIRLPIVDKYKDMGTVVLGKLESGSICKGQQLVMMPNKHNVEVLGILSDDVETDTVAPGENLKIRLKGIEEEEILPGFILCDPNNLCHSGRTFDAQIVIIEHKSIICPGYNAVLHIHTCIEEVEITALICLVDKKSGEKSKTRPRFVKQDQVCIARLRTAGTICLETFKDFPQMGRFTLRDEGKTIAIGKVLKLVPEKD
Sequence of HiBiT tagged GSPT1 (Q96SW2 whole entry): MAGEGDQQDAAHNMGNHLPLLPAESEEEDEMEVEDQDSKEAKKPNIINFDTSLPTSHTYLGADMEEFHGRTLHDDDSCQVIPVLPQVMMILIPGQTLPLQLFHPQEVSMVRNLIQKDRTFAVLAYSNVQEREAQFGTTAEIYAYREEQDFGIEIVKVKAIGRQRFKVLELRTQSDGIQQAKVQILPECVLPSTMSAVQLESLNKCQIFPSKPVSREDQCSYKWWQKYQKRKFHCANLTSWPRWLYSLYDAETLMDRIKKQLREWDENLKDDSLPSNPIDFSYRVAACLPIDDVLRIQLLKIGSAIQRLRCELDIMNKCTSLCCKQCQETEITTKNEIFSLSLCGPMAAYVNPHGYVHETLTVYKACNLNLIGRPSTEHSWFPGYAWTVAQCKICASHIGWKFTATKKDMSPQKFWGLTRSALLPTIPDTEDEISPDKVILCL
Sequence of HiBiT tagged GSPT1 (Q16531 whole entry partner): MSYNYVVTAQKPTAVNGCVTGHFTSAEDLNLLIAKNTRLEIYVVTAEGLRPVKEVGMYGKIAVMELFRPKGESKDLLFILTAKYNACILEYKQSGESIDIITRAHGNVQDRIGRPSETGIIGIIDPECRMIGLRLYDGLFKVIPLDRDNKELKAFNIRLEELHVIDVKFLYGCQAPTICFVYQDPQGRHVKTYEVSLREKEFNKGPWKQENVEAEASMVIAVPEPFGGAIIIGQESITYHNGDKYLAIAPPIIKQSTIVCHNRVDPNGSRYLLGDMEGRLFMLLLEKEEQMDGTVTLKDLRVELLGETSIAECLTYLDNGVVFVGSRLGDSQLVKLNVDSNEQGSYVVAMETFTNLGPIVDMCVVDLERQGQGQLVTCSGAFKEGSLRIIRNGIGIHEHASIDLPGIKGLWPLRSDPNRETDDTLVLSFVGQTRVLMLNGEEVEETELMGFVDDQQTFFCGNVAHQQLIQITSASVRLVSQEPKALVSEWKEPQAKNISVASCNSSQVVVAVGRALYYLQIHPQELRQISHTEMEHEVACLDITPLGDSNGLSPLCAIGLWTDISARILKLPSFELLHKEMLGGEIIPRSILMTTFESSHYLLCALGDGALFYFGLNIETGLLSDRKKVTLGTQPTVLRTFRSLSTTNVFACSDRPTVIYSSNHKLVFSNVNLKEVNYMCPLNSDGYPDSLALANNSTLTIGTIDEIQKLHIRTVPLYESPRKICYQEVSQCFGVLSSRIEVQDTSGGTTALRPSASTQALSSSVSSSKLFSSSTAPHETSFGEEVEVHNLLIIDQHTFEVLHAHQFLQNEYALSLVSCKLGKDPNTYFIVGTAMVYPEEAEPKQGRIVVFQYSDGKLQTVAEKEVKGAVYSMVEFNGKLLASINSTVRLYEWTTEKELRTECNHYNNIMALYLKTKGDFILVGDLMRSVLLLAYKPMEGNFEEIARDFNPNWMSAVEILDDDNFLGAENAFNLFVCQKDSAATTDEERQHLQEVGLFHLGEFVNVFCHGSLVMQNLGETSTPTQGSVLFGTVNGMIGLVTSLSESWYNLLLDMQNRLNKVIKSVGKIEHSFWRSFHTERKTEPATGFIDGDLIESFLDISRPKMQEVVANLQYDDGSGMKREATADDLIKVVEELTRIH
Sequence of HiBiT tagged CK1α (P48729 whole entry): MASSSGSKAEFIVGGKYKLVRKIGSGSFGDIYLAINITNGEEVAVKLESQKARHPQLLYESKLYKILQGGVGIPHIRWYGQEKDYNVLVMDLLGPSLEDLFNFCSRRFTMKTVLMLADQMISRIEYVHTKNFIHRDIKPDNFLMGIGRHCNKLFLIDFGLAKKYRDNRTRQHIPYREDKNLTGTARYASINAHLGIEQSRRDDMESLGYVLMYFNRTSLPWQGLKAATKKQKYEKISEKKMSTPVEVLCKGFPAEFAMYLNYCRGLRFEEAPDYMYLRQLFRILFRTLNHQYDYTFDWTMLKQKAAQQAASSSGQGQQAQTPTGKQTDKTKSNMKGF
Sequence of HiBiT tagged CK1α (Q96SW2 whole entry): as the sequence (Q96SW2 whole entry) above
Sequence of HiBiT tagged CK1α (Q16531 whole entry partner): as the sequence (Q16531 whole entry partner) above

SMILES | DC50 [1] [nM] | HiBiT CK1α: Dmax [1] [%] | HiBiT GSPT1: Dmax [2] [%] | IC50 [3] [nM] | Dmax [1] [%] | Dmax [2] [%] | IC50 ([3]; Homo sapiens) [nM]
O=C1CC[C@@H](N2Cc3cc(C(=O)N[C@H](c4ccc(F)cc4)C4CCC4)ccc3C2=O)C(=O)N1 (relative stereo) [Compound 8, N—((*S)-cyclobutyl(4-fluorophenyl)methyl)-2-((R)-2,6-dioxopiperidin-3-yl)-1-oxoisoindoline-5-carboxamide] | 160 | 72.9 | 23.4 | 205 | – | – | –
O=C1CCC(N2Cc3cc(C(=O)N[C@@H](c4ccc(F)cc4)C4CC(F)(F)C4)ccc3C2=O)C(=O)N1 (single isomer, unassigned) [Compound 5] | – | – | – | – | 75.9 | 30.3 | 363
O=C1CCC(N2Cc3cc(C(=O)N[C@H](c4ccc(F)cc4)C4CC(F)(F)C4)ccc3C2=O)C(=O)N1 (single isomer, unassigned) [Compound 6] | – | – | – | – | 60.9 | 30.1 | 691
O=C1CC[C@H](N2Cc3cc(C(=O)N[C@H](c4ccc(F)cc4)C4CCC4)ccc3C2=O)C(=O)N1 (single isomer, unassigned) [Compound 9, N—((*S)-cyclobutyl(4-fluorophenyl)methyl)-2-((S)-2,6-dioxopiperidin-3-yl)-1-oxoisoindoline-5-carboxamide] | 116 | – | – | – | 71.6 | 22.6 | 172
O=C1CCC(N2Cc3cc(C(=O)N[C@H](c4ccc(Cl)cc4)C4CCC4)ccc3C2=O)C(=O)N1 (stereo in doubt) [Compound 36, N-((*S)-(4-chlorophenyl)(cyclobutyl)methyl)-2-(2,6-dioxopiperidin-3-yl)-1-oxoisoindoline-5-carboxamide] | 66.7 | – | – | – | 65.8 | 24.6 | 128
O=C1CCC(N2Cc3cc(C(=O)N[C@@H](c4ccc(F)cc4F)C4CCC4)ccc3C2=O)C(=O)N1 (stereo in doubt) [Compound 42, N-((*R)-cyclobutyl(2,4-difluorophenyl)methyl)-2-(2,6-dioxopiperidin-3-yl)-1-oxoisoindoline-5-carboxamide] | 1150 | – | – | – | 57.7 | 40.8 | 420
O=C1CCC(N2Cc3cc(C(=O)NC(c4cccc(F)c4)C4CCC4)ccc3C2=O)C(=O)N1 (stereo not shown) [Compound 23, N-(cyclobutyl(3-fluorophenyl)methyl)-2-(2,6-dioxopiperidin-3-yl)-1-oxoisoindoline-5-carboxamide] | 198 | – | – | – | 61.3 | 32 | –
O=C1CCC(N2Cc3cc(C(=O)NC(c4ccc(F)cc4)C4CCCC4)ccc3C2=O)C(=O)N1 (stereo not shown) [Compound 37, N-(cyclopentyl(4-fluorophenyl)methyl)-2-(2,6-dioxopiperidin-3-yl)-1-oxoisoindoline-5-carboxamide] | 72.7 | – | – | – | 70.8 | 36.2 | –
O=C1CCC(N2Cc3cc(C(=O)NC(c4ccc(F)c(F)c4)C4CCC4)ccc3C2=O)C(=O)N1 (stereo not shown) [Compound 40, N-(cyclobutyl(3,4-difluorophenyl)methyl)-2-(2,6-dioxopiperidin-3-yl)-1-oxoisoindoline-5-carboxamide] | 416 | – | – | – | 57.5 | 30.6 | –
O=C1CCC(N2Cc3cc(C(=O)NC(c4cccc(F)c4Cl)C4CC4)ccc3C2=O)C(=O)N1 (stereo not shown) [Compound 43, N-((2-chloro-3-fluorophenyl)(cyclopropyl)methyl)-2-(2,6-dioxopiperidin-3-yl)-1-oxoisoindoline-5-carboxamide] | 49.6 | – | – | – | 69.8 | 58.2 | –
N#Cc1cccc(C(NC(=O)c2ccc3c(c2)CN(C2CCC(=O)NC2=O)C3=O)C2CC2)c1 (stereo not shown) [Compound 44, N-((3-cyanophenyl)(cyclopropyl)methyl)-2-(2,6-dioxopiperidin-3-yl)-1-oxoisoindoline-5-carboxamide] | – | – | – | – | 49.5 | 22.5 | –
O=C1CCC(N2Cc3cc(C(=O)NC(c4c(F)cccc4Cl)C4CC4)ccc3C2=O)C(=O)N1 (stereo not shown) [Compound 45, N-((2-chloro-6-fluorophenyl)(cyclopropyl)methyl)-2-(2,6-dioxopiperidin-3-yl)-1-oxoisoindoline-5-carboxamide] | 57.8 | – | – | – | 73.8 | 42.4 | –

Other lines, results leading:

DC50 [1] [nM] | HiBiT CK1α: Dmax [1] [%] | HiBiT GSPT1: Dmax [2] [%] | IC50 [3] [nM] | Dmax [1] [%] | Dmax [2] [%] | IC50 ([3]; Homo sapiens) [nM] | SMILES
74.1 | – | – | – | 72.4 | 15.2 | 24 | Cn1cc(-c2cccnc2[C@@H](NC(=O)c2ccc3c(c2)CN([C@H]2CCC(=O)NC2=O)C3=O)C2CCC2)cn1 (single isomer, unassigned) [Compound 84, N—((*S)-cyclobutyl(3-(1-methyl-1H-pyrazol-4-yl)pyridin-2-yl)methyl)-2-((S)-2,6-dioxopiperidin-3-yl)-1-oxoisoindoline-5-carboxamide]
219 | 64.4 | 23.5 | 71 | – | – | – | O=C1CCC(N2Cc3cc(C(=O)N[C@H](c4ccc(Cl)cn4)C4CCC4)ccc3C2=O)C(=O)N1 (stereo in doubt) [Compound 76, N—((*S)-(5-chloropyridin-2-yl)(cyclobutyl)methyl)-2-(2,6-dioxopiperidin-3-yl)-1-oxoisoindoline-5-carboxamide]
198 | – | – | – | 67.2 | 14.4 | 176 | O=C1CCC(N2Cc3cc(C(=O)N[C@H](c4ccc(F)cn4)C4CCC4)ccc3C2=O)C(=O)N1 (stereo in doubt) [Compound 78, N-((*S)-cyclobutyl(5-fluoropyridin-2-yl)methyl)-2-(2,6-dioxopiperidin-3-yl)-1-oxoisoindoline-5-carboxamide]
274 | – | – | – | 65.9 | 20.4 | 176 | O=C1CCC(N2Cc3cc(C(=O)N[C@H](c4ncc(Cl)cc4Cl)C4CCC4)ccc3C2=O)C(=O)N1 (stereo in doubt) [Compound 79, N-((*S)-cyclobutyl(3,5-dichloropyridin-2-yl)methyl)-2-(2,6-dioxopiperidin-3-yl)-1-oxoisoindoline-5-carboxamide]
115 | – | – | – | 66 | 14.4 | 27 | O=C1CCC(N2Cc3cc(C(=O)N[C@H](c4ncccc4-c4ccc(F)cc4)C4CCC4)ccc3C2=O)C(=O)N1 (stereo in doubt) [Compound 83, N—((*S)-cyclobutyl(3-(4-fluorophenyl)pyridin-2-yl)methyl)-2-(2,6-dioxopiperidin-3-yl)-1-oxoisoindoline-5-carboxamide]
279 | – | – | – | 59.8 | 25 | 133 | O=C1CCC(N2Cc3cc(C(=O)N[C@H](c4ncccc4Cl)C4(F)CCC4)ccc3C2=O)C(=O)N1 (stereo in doubt) [Compound 87, N-[(*R)-(3-chloro-2-pyridyl)-(1-fluorocyclobutyl)methyl]-2-(2,6-dioxo-3-piperidyl)-1-oxo-isoindoline-5-carboxamide]
148 | – | – | – | 69 | 17.3 | 198 | O=C1CCC(N2Cc3cc(C(=O)N[C@H](c4ncc(Cl)cc4F)C4(F)CCC4)ccc3C2=O)C(=O)N1 (stereo in doubt) [Compound 89, N-((*R)-(5-chloro-3-fluoropyridin-2-yl)(1-fluorocyclobutyl)methyl)-2-(2,6-dioxopiperidin-3-yl)-1-oxoisoindoline-5-carboxamide]
721 | – | – | – | 59.6 | 23.1 | – | O=C1CCC(N2Cc3cc(C(=O)N[C@H](c4ccc(F)cc4)C4(O)CC4)ccc3C2=O)C(=O)N1 (stereo partly drawn) [Compound 65, 2-(2,6-dioxopiperidin-3-yl)-N—((R)-(4-fluorophenyl)(1-hydroxycyclopropyl)methyl)-1-oxoisoindoline-5-carboxamide]

From patent publication US12673936B2, “Isoindolinone compounds, and uses thereof” (HANGZHOU GLUBIO PHARMACEUTICAL CO., LTD., priority 2021, dated 2026)
